Here are results for 15 molecules from US12643886B2 (Ontario Institute for Cancer Research (OICR), priority 2021, dated 2026).

Holding throughout (format): biochemical
One experiment concerns the target T1, NUAK2 (h) (Homo sapiens, UniProt Q9H093).
T1 construct: This assay was done radiometrically using full-length, recombinant enzyme; purchased Eurofins
T1 sequence (Q9H093 1-628): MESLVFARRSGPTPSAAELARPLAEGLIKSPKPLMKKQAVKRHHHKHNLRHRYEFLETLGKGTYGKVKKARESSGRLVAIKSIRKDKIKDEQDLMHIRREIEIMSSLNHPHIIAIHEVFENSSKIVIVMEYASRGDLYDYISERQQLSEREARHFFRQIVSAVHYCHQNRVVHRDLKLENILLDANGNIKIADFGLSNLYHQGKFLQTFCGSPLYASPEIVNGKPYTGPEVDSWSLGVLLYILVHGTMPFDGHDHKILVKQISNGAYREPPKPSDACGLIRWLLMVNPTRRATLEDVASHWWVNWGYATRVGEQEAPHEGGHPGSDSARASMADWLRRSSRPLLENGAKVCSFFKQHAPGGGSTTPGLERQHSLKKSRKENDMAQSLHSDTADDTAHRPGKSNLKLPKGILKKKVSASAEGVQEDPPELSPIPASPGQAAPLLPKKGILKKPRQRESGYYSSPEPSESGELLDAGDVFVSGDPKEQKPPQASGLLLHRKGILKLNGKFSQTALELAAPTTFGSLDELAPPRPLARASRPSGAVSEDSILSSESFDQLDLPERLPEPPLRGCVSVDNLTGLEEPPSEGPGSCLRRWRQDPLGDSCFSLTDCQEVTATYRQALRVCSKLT
The experiment is described as follows: NUAK2 enzymatic assay (radiometric, Eurofins). The following applies: full-length recombinant enzyme. The method, then: (§1) To identify small molecule NUAK inhibitors, a biochemical NUAK2 enzymatic assay were outsourced to Eurofins. This assay was done radiometrically using full-length, recombinant enzyme. NUAK2 (h) was incubated with 8 mM MOPS pH 7.0, 0.2 mM EDTA, 300 μM […], 10 mM magnesium acetate and […] (specific activity and concentration as required). The reaction was initiated by the addition of the Mg/ATP mix. After incubation for 40 minutes at room temperature, the reaction was stopped by the addition of phosphoric acid to a concentration of 0.5%. 10 μL of the reaction was then spotted onto a P30 filtermat and washed four times for 4 minutes in 0.425% phosphoric acid and once in methanol prior to drying and scintillation counting. Compounds were routinely counter-screened against Aurora A and NUAK1. The results are shown in Table 1 where IC50's are reported in the following ranges: A: 0.1-10 nM; B: 11-100 nM; C: 101-1000 nM; D: >1000 nM for the compounds of Formula (I)

The target of another experiment is T2, NUAK1 (Homo sapiens, UniProt O60285).
T2 sequence (O60285 1-661): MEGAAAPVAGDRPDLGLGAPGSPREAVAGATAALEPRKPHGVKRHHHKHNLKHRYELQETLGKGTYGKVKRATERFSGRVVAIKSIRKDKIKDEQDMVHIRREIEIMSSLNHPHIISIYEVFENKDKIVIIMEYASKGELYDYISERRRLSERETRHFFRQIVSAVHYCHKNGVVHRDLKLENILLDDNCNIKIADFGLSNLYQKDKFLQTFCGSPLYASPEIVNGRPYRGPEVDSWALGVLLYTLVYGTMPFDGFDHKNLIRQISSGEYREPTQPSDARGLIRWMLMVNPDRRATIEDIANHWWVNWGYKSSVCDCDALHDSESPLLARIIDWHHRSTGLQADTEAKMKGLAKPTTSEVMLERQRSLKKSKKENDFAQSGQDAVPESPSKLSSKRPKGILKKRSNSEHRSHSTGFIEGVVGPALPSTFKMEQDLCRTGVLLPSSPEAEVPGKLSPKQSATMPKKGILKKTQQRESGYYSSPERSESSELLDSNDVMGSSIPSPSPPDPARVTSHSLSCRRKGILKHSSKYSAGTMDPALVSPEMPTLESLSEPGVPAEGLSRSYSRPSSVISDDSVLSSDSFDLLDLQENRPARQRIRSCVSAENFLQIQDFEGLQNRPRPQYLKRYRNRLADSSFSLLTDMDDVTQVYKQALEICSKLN
Kind of experiment: Counter-screen against NUAK1. The procedure: as §1
(The purpose of a counterscreen is to sort out artefacts and off-target activity.)

The target in another experiment is T3, Aurora A (Homo sapiens, UniProt O14965).
T3 sequence (O14965 1-403): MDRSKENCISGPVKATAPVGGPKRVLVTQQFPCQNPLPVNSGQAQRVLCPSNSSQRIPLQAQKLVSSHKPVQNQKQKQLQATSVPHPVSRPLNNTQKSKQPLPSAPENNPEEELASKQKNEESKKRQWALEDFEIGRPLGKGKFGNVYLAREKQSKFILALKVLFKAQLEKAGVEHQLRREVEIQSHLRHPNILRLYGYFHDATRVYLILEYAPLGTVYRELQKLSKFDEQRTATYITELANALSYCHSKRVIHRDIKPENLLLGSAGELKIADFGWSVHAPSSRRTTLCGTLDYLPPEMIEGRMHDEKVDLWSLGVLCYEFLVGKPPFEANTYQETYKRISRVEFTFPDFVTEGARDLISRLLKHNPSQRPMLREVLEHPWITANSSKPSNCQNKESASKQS
The experiment is described as follows: Counter-screen against Aurora A. To be noted: read-out: AUR-A (IC50). The procedure: as §1

In the case of `COc1c(Nc2ncc(C(F)(F)F)c(Nc3cccc4c3C(=O)NC4)n2)ccc(N2C[C@H]3CN(C)C[C@H]3C2)c1F` [Compound I-35, 7-((2-((3-fluoro-2-methoxy-4-((3aR,6aS)-5-methylhexahydropyrrolo[3,4-c]pyrrol-2(1H)-yl)phenyl)amino)-5-(trifluoromethyl)pyrimidin-4-yl)amino)isoindolin-1-one], the figures for the IC50 at NUAK2 (h), at NUAK1 and at Aurora A were 11 to 100 nM, 11 to 100 nM and 101 to 1000 nM, respectively.
For the molecule `CN1CCN(c2ccc(Nc3ncc(C(F)(F)F)c(Nc4cccc5c4C(=O)NC5)n3)c(Cl)c2F)CC1` [Compound I-36, 7-((2-((2-chloro-3-fluoro-4-(4-methylpiperazin-1-yl)phenyl)amino)-5-(trifluoromethyl)pyrimidin-4-yl)amino)isoindolin-1-one], the IC50 on NUAK2 (h) lay in the range of 11 to 100 nM; on NUAK1 it was 0.1 to 10 nM; at Aurora A, 11 to 100 nM.
`COc1c(Nc2ncc(C(F)(F)F)c(Nc3cccc4c3C(=O)NC4)n2)ccc(N2CCC(N3CCCC3)CC2)c1F` [Compound I-37, 7-((2-((3-fluoro-2-methoxy-4-(4-(pyrrolidin-1-yl)piperidin-1-yl)phenyl)amino)-5-(trifluoromethyl)pyrimidin-4-yl)amino)isoindolin-1-one]: the IC50 lay within 0.1 to 10 nM on NUAK2 (h), 11 to 100 nM on NUAK1 and 11 to 100 nM at Aurora A.
Turning to `COc1c(Nc2ncc(C(F)(F)F)c(Nc3cccc4c3C(=O)NC4)n2)ccc(N2CCCN(C)CC2)c1F` [Compound I-38, 7-((2-((3-fluoro-2-methoxy-4-(4-methyl-1,4-diazepan-1-yl)phenyl)amino)-5-(trifluoromethyl)pyrimidin-4-yl)amino)isoindolin-1-one], the IC50 lay within 0.1 to 10 nM on NUAK2 (h), 11 to 100 nM against NUAK1 and 101 to 1000 nM on Aurora A.
As to `COc1c(Nc2ncc(C(F)(F)F)c(Nc3cccc4c3C(=O)NC4)n2)ccc(N2CCC(N3CCNCC3)CC2)c1F` [Compound I-39, 7-((2-((3-fluoro-2-methoxy-4-(4-(piperazin-1-yl)piperidin-1-yl)phenyl)amino)-5-(trifluoromethyl)pyrimidin-4-yl)amino)isoindolin-1-one], the IC50 at NUAK2 (h), at NUAK1 and on Aurora A was 11 to 100 nM throughout.
With `O=C1NCc2cccc(Nc3nc(Nc4ccc(N5CCC(N6CCNCC6)CC5)cc4OC(F)F)ncc3C(F)(F)F)c21` [Compound I-40, 7-((2-((2-(difluoromethoxy)-4-(4-(piperazin-1-yl)piperidin-1-yl)phenyl)amino)-5-(trifluoromethyl)pyrimidin-4-yl)amino)isoindolin-1-one], the results for the IC50 on NUAK2 (h), against NUAK1 and at Aurora A were 0.1 to 10 nM, 11 to 100 nM and 101 to 1000 nM, respectively.
On to `CN1CCN(c2ccc(Nc3ncc(Cl)c(Nc4cccc5c4C(=O)NC5)n3)c(OC(F)(F)F)c2)CC1` [Compound I-41, 7-((5-chloro-2-((4-(4-methylpiperazin-1-yl)-2-(trifluoromethoxy)phenyl)amino)pyrimidin-4-yl)amino)isoindolin-1-one], for which the IC50 was in the range of 11 to 100 nM at NUAK2 (h), 101 to 1000 nM on NUAK1 and 101 to 1000 nM on Aurora A.
With `O=C1NCc2cccc(Nc3nc(Nc4ccc(N5CCNCC5)cc4OC(F)F)ncc3F)c21` [Compound I-42, 7-((2-((2-(difluoromethoxy)-4-(piperazin-1-yl)phenyl)amino)-5-fluoropyrimidin-4-yl)amino)isoindolin-1-one], the IC50 on NUAK2 (h) is 11 to 100 nM; on NUAK1, 101 to 1000 nM; at Aurora A, 101 to 1000 nM.
For the molecule `COc1cc2c(cc1Nc1ncc(F)c(Nc3cccc4c3C(=O)NC4)n1)CCNC2` [Compound I-43, 7-((5-fluoro-2-((7-methoxy-1,2,3,4-tetrahydroisoquinolin-6-yl)amino)pyrimidin-4-yl)amino)isoindolin-1-one], the IC50 was in the range of 11 to 100 nM at NUAK2 (h), 101 to 1000 nM against NUAK1 and 101 to 1000 nM at Aurora A.
Consider `COc1cc2c(cc1Nc1ncc(C(F)(F)F)c(Nc3cccc4c3C(=O)NC4)n1)CCNCC2` [Compound I-44, 7-((2-((8-methoxy-2,3,4,5-tetrahydro-1H-benzo[d]azepin-7-yl)amino)-5-(trifluoromethyl)pyrimidin-4-yl)amino)isoindolin-1-one], for which the IC50 at NUAK2 (h) lay within 0.1 to 10 nM; against NUAK1, 101 to 1000 nM; on Aurora A it was 101 to 1000 nM.
Turning to `COc1c(Nc2ncc(C(F)(F)F)c(Nc3cccc4c3C(=O)NC4)n2)ccc(N2CCC(N3CCN(C)CC3)CC2)c1F` [Compound I-45, 7-((2-((3-fluoro-2-methoxy-4-(4-(4-methylpiperazin-1-yl)piperidin-1-yl)phenyl)amino)-5-(trifluoromethyl)pyrimidin-4-yl)amino)isoindolin-1-one], the IC50 on NUAK2 (h), on NUAK1 and at Aurora A was 11 to 100 nM throughout.
`COc1cc2c(cc1Nc1ncc(C(F)(F)F)c(Nc3cccc4c3C(=O)NC4)n1)CNCC21CC1` [Compound I-46, 7-((2-((6′-methoxy-2′,3′-dihydro-1′H-spiro[cyclopropane-1,4′-isoquinolin]-7′-yl)amino)-5-(trifluoromethyl)pyrimidin-4-yl)amino)isoindolin-1-one]: the IC50 at NUAK2 (h) was 0.1 to 10 nM; against NUAK1 it was 11 to 100 nM; at Aurora A, above 1000 nM.
Turning to `COc1cc2c(cc1Nc1ncc(OC)c(Nc3cccc4c3C(=O)NC4)n1)CCNC2` [Compound I-47, 7-((5-methoxy-2-((7-methoxy-1,2,3,4-tetrahydroisoquinolin-6-yl)amino)pyrimidin-4-yl)amino)isoindolin-1-one], the half-inhibitory concentration (IC50) on NUAK2 (h) was 11 to 100 nM; against NUAK1, 101 to 1000 nM; on Aurora A it was above 1000 nM.
Consider `C[C@@H]1CN(C2CCN(c3ccc(Nc4ncc(C(F)(F)F)c(Nc5cccc6c5C(=O)NC6)n4)c(OC(F)F)c3)CC2)C[C@H](C)N1C` [Compound I-48, 7-((2-((2-(difluoromethoxy)-4-(4-((3S,5R)-3,4,5-trimethylpiperazin-1-yl)piperidin-1-yl)phenyl)amino)-5-(trifluoromethyl)pyrimidin-4-yl)amino)isoindolin-1-one], for which the IC50 at NUAK2 (h) was in the range of 0.1 to 10 nM; on NUAK1, 11 to 100 nM; on Aurora A it was 101 to 1000 nM.
As for `C[C@@H]1CN(c2ccc(Nc3ncc(C(F)(F)F)c(Nc4cccc5c4C(=O)NC5)n3)c(OC(F)F)c2)C[C@H](C)N1` [Compound I-49, 7-((2-((2-(difluoromethxoy)-4-((3S,5R)-3,5-dimethylpiperazin-1-yl)phenyl)amino)-5-(trifluoromethyl)pyrimidin-4-yl)amino)isoindolin-1-one], the half-maximal inhibitory concentration (IC50) at NUAK2 (h) is 0.1 to 10 nM; on NUAK1, 11 to 100 nM; at Aurora A, above 1000 nM.

For orientation: IC50 means the midpoint of a concentration-inhibition curve.
